US20210221848A1, “POLYMYXIN DERIVATIVES AND THEIR USE IN COMBINATION THERAPY TOGETHER WITH DIFFERENT ANTIBIOTICS” (priority 2014, published 2021)
Converted amounts (≈) assume the structure as drawn. Where two headings read alike, the source gives them in different places. Bridge positions count the residues as written; N and C are the ends. Square brackets hold non-standard residues; d marks the D form. Peptide text beside a SMILES is read from it. * marks the point of attachment. ξ: configuration not given here. Thr(3ξ) = CC(O)[C@H](N)C(=O)O; X9 = CC(C)[C@H](N)CCC(=O)*; Octanoyl = CCCCCCCC(=O)*; Dab = NCC[C@H](N)C(=O)O; X15 = O=C(C1CCNC1)*; GABA = NCCCC(=O)O; βAla = NCCC(=O)O

What was measured:
[1] = system: E. coli
[2] = system: A. baumannii
[3] = system: K. pneumoniae
[4] = system: P. aeruginosa
[5] = absence of a second agent, Table 6B

| MIC [2] [µg/mL] | Molecule | MIC, E. coli ATCC 25922 [1, 5] [micrograms/mL] | MIC, E. coli NCTC 13441 [1, 5] [micrograms/mL] | MIC, A. baumannii ATCC BAA-747 [2, 5] [micrograms/mL] | MIC, A. baumannii NCTC 13424 [2, 5] [micrograms/mL] | MIC, K. pneumoniae ATCC 4352 [3, 5] [micrograms/mL] | MIC, K. pneumoniae ATCC BAA-2146 [3, 5] [micrograms/mL] | MIC, P. aeruginosa ATCC 27853 [4, 5] [micrograms/mL] | MIC, P. aeruginosa CCUG 59347 [4, 5] [micrograms/mL] | further results |
| --- | --- | --- | --- | --- | --- | --- | --- | --- | --- | --- |
| – | 1,2,3,4- tetrahydroisoquinoline- 4-carbonyl polymyxin B nonapeptide [Example D14] | >8 | >8 | >8 | >8 | >8 | >8 | 1 | 4 | – |
| – | 1-(2- trifluoromethylben- zyl)piperazine- 2-carbonyl Polymyxin B nonapeptide [Example D55] | – | – | – | – | – | – | – | – | MIC, E. coli ATCC 25922 ([1]; sole activity, Table 6C): 0.25 micrograms/mL; MIC, E. coli NCTC 13441 ([1]; sole activity, Table 6C): 0.25 micrograms/mL; MIC, A. baumannii ATCC BAA-747 ([2]; sole activity, Table 6C): 0.25 micrograms/mL; MIC, A. baumannii NCTC 13424 ([2]; sole activity, Table 6C): 0.5 micrograms/mL; MIC, K. pneumoniae ATCC 4352 ([3]; sole activity, Table 6C): 0.25 micrograms/mL; MIC, K. pneumoniae ATCC BAA-2146 ([3]; sole activity, Table 6C): 0.5 micrograms/mL; MIC, P. aeruginosa ATCC 27853 ([4]; sole activity, Table 6C): 0.5 micrograms/mL; MIC, P. aeruginosa CCUG 59347 ([4]; sole activity, Table 6C): 1 micrograms/mL |
| – | 2-(2-aminoethyl)-4- methyl pentanoyl polymyxin B nonapeptide [Example D45] | 0.5 | 2 | 8 | 4 | 0.5 | 2 | 1 | 4 | – |
| – | 2-(2-aminoethyl)-4- methyl pentanoyl polymyxin B nonapeptide [Example D46] | 1 | 1 | 1 | 2 | 0.5 | 1 | 0.5 | 1 | – |
| – | 2-aminomethyl-3- naphthalen-2-yl- propanoyl polymyxin B nonapeptide [Example D40] | 2 | 2 | >8 | 8 | 2 | 4 | 0.5 | 1 | – |
| – | 2-aminomethyl-3- naphthalen-2-yl- propanoyl polymyxin B nonapeptide [Example D41] | 1 | 1 | 2 | 1 | 2 | – | 0.5 | 1 | – |
| – | 2-benzyl-3- (methylamino)pro- panoyl polymyxin B nonapeptide [Example D57] | – | – | – | – | – | – | – | – | MIC, E. coli ATCC 25922 ([1]; sole activity, Table 6C): 0.25 micrograms/mL; MIC, E. coli NCTC 13441 ([1]; sole activity, Table 6C): 0.5 micrograms/mL; MIC, A. baumannii ATCC BAA-747 ([2]; sole activity, Table 6C): 4 micrograms/mL; MIC, A. baumannii NCTC 13424 ([2]; sole activity, Table 6C): 2 micrograms/mL; MIC, K. pneumoniae ATCC 4352 ([3]; sole activity, Table 6C): 0.25 micrograms/mL; MIC, K. pneumoniae ATCC BAA-2146 ([3]; sole activity, Table 6C): 0.25 micrograms/mL; MIC, P. aeruginosa ATCC 27853 ([4]; sole activity, Table 6C): 0.5 micrograms/mL; MIC, P. aeruginosa CCUG 59347 ([4]; sole activity, Table 6C): 1 micrograms/mL |
| – | 4- (isobutylamino)pi- peridine-3- carbonyl L-Thr-L- Dap-polymyxin B heptapeptide [Example D74] | – | – | – | – | – | – | – | – | MIC, E. coli ATCC 25922 ([1]; sole activity, Table 6C): 0.25 micrograms/mL; MIC, E. coli NCTC 13441 ([1]; sole activity, Table 6C): 0.25 micrograms/mL; MIC, A. baumannii ATCC BAA-747 ([2]; sole activity, Table 6C): 2 micrograms/mL; MIC, A. baumannii NCTC 13424 ([2]; sole activity, Table 6C): 2 micrograms/mL; MIC, K. pneumoniae ATCC 4352 ([3]; sole activity, Table 6C): 0.125 micrograms/mL; MIC, K. pneumoniae ATCC BAA-2146 ([3]; sole activity, Table 6C): 0.5 micrograms/mL; MIC, P. aeruginosa ATCC 27853 ([4]; sole activity, Table 6C): 0.25 micrograms/mL; MIC, P. aeruginosa CCUG 59347 ([4]; sole activity, Table 6C): 0.5 micrograms/mL |
| – | 4-Amino-2-benzyl butanoylpolymyxin B nonapeptide [Example D3] | 0.25 | 0.5 | >8 | >8 | 1 | 2 | 0.5 | 1 | – |
| – | 4-octylpiperidine-3- carbonyl polymyxin B nonapeptide [Example D34] | 1 | 1 | 2 | 2 | 2 | 2 | 1 | 2 | – |
| – | 5- (isobutylamino)pi- peridine-3- carbonyl Polymyxin B nonapeptide [Example D62] | – | – | – | – | – | – | – | – | MIC, E. coli ATCC 25922 ([1]; sole activity, Table 6C): 0.5 micrograms/mL; MIC, E. coli NCTC 13441 ([1]; sole activity, Table 6C): 1 micrograms/mL; MIC, A. baumannii ATCC BAA-747 ([2]; sole activity, Table 6C): 4 micrograms/mL; MIC, A. baumannii NCTC 13424 ([2]; sole activity, Table 6C): 4 micrograms/mL; MIC, K. pneumoniae ATCC 4352 ([3]; sole activity, Table 6C): 0.5 micrograms/mL; MIC, K. pneumoniae ATCC BAA-2146 ([3]; sole activity, Table 6C): 1 micrograms/mL; MIC, P. aeruginosa ATCC 27853 ([4]; sole activity, Table 6C): 1 micrograms/mL; MIC, P. aeruginosa CCUG 59347 ([4]; sole activity, Table 6C): 2 micrograms/mL |
| – | 5-((2- methylpropyl)sulfon- amido)piperidine- 3-carbonyl- polymyxin B nonapeptide [Example D73] | – | – | – | – | – | – | – | – | MIC, E. coli ATCC 25922 ([1]; sole activity, Table 6C): 0.25 micrograms/mL; MIC, E. coli NCTC 13441 ([1]; sole activity, Table 6C): 0.5 micrograms/mL; MIC, A. baumannii ATCC BAA-747 ([2]; sole activity, Table 6C): 4 micrograms/mL; MIC, A. baumannii NCTC 13424 ([2]; sole activity, Table 6C): 2 micrograms/mL; MIC, K. pneumoniae ATCC 4352 ([3]; sole activity, Table 6C): 0.5 micrograms/mL; MIC, K. pneumoniae ATCC BAA-2146 ([3]; sole activity, Table 6C): 0.5 micrograms/mL; MIC, P. aeruginosa ATCC 27853 ([4]; sole activity, Table 6C): 1 micrograms/mL; MIC, P. aeruginosa CCUG 59347 ([4]; sole activity, Table 6C): 2 micrograms/mL |
| 1 (≈ 0.841 µM) | CCCCCCCC(=O)N[C@@H](CCN)C(=O)N[C@H](C(=O)N[C@@H](CCN)C(=O)N[C@H]1CCNC(=O)[C@H]([C@@H](C)O)NC(=O)[C@H](CCN)NC(=O)[C@H](CCN)NC(=O)[C@H](CC(C)C)NC(=O)[C@@H](Cc2ccccc2)NC(=O)[C@H](CCN)NC1=O)C(C)O (some centres unmarked) [CC4, Octanoyl polymyxin B decapeptide, reference compound] (Octanoyl-[Dab][Thr(3ξ)][Dab][Dab][Dab][dF]L[Dab][Dab]T; lactam 4-C) | – | – | – | – | – | – | – | – | – |
| 4 (≈ 3.67 µM) | CCCCCCCC(=O)N[C@H](C(=O)N[C@@H](CCN)C(=O)N[C@H]1CCNC(=O)[C@H]([C@@H](C)O)NC(=O)[C@H](CCN)NC(=O)[C@H](CCN)NC(=O)[C@H](CC(C)C)NC(=O)[C@@H](Cc2ccccc2)NC(=O)[C@H](CCN)NC1=O)[C@@H](C)O [CC6, Octanoyl polymyxin B nonapeptide, reference compound] (Octanoyl-T[Dab][Dab][Dab][dF]L[Dab][Dab]T; lactam 3-C) | – | – | – | – | – | – | – | – | MIC [1]: 0.5 µg/mL (≈ 0.459 µM) |
| 4 (≈ 3.82 µM) | CC(C)C[C@@H]1NC(=O)[C@@H](Cc2ccccc2)NC(=O)[C@H](CCN)NC(=O)[C@@H](NC(=O)[C@H](CCN)NC(=O)[C@@H](NC(=O)CCCN)[C@@H](C)O)CCNC(=O)[C@H]([C@@H](C)O)NC(=O)[C@H](CCN)NC(=O)[C@H](CCN)NC1=O [Example B5, reference compound] (H-[GABA]T[Dab][Dab][Dab][dF]L[Dab][Dab]T; lactam 4-C) | – | – | – | – | – | – | – | – | – |
| >8 | CC(C)C[C@@H]1NC(=O)[C@@H](Cc2ccccc2)NC(=O)[C@H](CCN)NC(=O)[C@@H](NC(=O)[C@H](CCN)NC(=O)[C@@H](NC(=O)CC[C@@H](N)C(C)C)[C@@H](C)O)CCNC(=O)[C@H]([C@@H](C)O)NC(=O)[C@H](CCN)NC(=O)[C@H](CCN)NC1=O [Example B6, reference compound] (X9-T[Dab][Dab][Dab][dF]L[Dab][Dab]T; lactam 3-C) | – | – | – | – | – | – | – | – | MIC [1]: 8 µg/mL (≈ 7.34 µM); MIC [4]: 4 µg/mL (≈ 3.67 µM) |
| >8 | CC(C)C[C@@H]1NC(=O)[C@@H](Cc2ccccc2)NC(=O)[C@H](CCN)NC(=O)[C@@H](NC(=O)[C@H](CCN)NC(=O)[C@@H](NC(=O)CCN)[C@@H](C)O)CCNC(=O)[C@H]([C@@H](C)O)NC(=O)[C@H](CCN)NC(=O)[C@H](CCN)NC1=O [Example B7, reference compound] (H-[βAla]T[Dab][Dab][Dab][dF]L[Dab][Dab]T; lactam 4-C) | – | – | – | – | – | – | – | – | – |
| – | CC(C)C[C@@H]1NC(=O)[C@@H](Cc2ccccc2)NC(=O)[C@H](CCN)NC(=O)[C@@H](NC(=O)[C@H](CCN)NC(=O)[C@@H](NC(=O)C2CCNC2)[C@@H](C)O)CCNC(=O)[C@H]([C@@H](C)O)NC(=O)[C@H](CCN)NC(=O)[C@H](CCN)NC1=O (some centres unmarked) [Example B8, reference compound] (X15-T[Dab][Dab][Dab][dF]L[Dab][Dab]T; lactam 3-C) | – | – | – | – | – | – | – | – | MIC [1]: 4 µg/mL (≈ 3.77 µM) |

| Molecule | MIC [2] [µg/mL] | MIC, E. coli ATCC 25922 [1, 5] [micrograms/mL] | MIC, E. coli NCTC 13441 [1, 5] [micrograms/mL] | MIC, A. baumannii ATCC BAA-747 [2, 5] [micrograms/mL] | MIC, A. baumannii NCTC 13424 [2, 5] [micrograms/mL] | MIC, K. pneumoniae ATCC 4352 [3, 5] [micrograms/mL] | MIC, K. pneumoniae ATCC BAA-2146 [3, 5] [micrograms/mL] | MIC, P. aeruginosa ATCC 27853 [4, 5] [micrograms/mL] | MIC, P. aeruginosa CCUG 59347 [4, 5] [micrograms/mL] | further results |
| --- | --- | --- | --- | --- | --- | --- | --- | --- | --- | --- |
| CCCCCCCC(=O)NCC(=O)N[C@H](C(=O)N[C@@H](CCN)C(=O)N[C@H]1CCNC(=O)[C@H]([C@@H](C)O)NC(=O)[C@H](CCN)NC(=O)[C@H](CCN)NC(=O)[C@H](CC(C)C)NC(=O)[C@@H](Cc2ccccc2)NC(=O)[C@H](CCN)NC1=O)C(C)O (some centres unmarked) [CC5, Octanoyl-Gly- Polymyxin B nonapeptide, reference compound] (Octanoyl-G[Thr(3ξ)][Dab][Dab][Dab][dF]L[Dab][Dab]T; lactam 4-C) | >8 | – | – | – | – | – | – | – | – | MIC [1]: 8 µg/mL (≈ 6.98 µM); MIC [3]: 8 µg/mL (≈ 6.98 µM) |
